Experimental data reported in ChEMBL document CHEMBL5604062, “ASAP - ZIKV NS2B-NS3 protease fluorescence dose response” (2024).
Where “and” joins values, the source holds several entries; their conditions need not be identical. Equal entries are not always repeated.

Molecular target: Nonstructural protein 3 (Zika virus, UniProt A0A024AXB9)
Test: Functional biochemical assay to identify treatments for viral infectious disease that targets Zika NS2B-NS3 protease. Utilizing a direct enzyme activity measurement method, reading the fluorescence intensity is used to characterize the relative potency of inhibitors as IC50.
Parameters: species or system PRVABC59

Chain of Nonstructural protein 3 (A0A024AXB9 whole entry): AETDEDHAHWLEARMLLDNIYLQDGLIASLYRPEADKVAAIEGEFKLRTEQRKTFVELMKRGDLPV

Row | Compound | IC50
1 | Cn1cc(CNC(=O)[C@H](Nc2ccc3c(c2)CNC3)c2cc(Cl)cc(C3CC3)c2)cn1 | 0.085 µM and 0.065 µM
2 | Cc1c(C(=O)Nc2cccc([C@@H](C)N)c2)cc(C2CC2)n1C | > 99.5 µM
3 | CC1(NS(=O)(=O)c2ccc(Cl)cc2C(=O)O)CCN(c2ccccc2)CC1 | > 99.5 µM
4 | N#C[C@H](Nc1ccc2c(c1)CNC2)c1cccc2[nH]ncc12 | 2.61 µM
5 | CCOc1cccc(-c2ccc(S(=O)(=O)Nc3ccc(Cl)cc3C(=O)O)cc2)c1 | 14.7 µM and 13.8 µM
6 | COc1ccc([C@H]2C[C@H](C)CN2C(=O)Nc2ccc3c(c2)CNC3)cc1 | > 25 µM
7 | C[C@H]1CCCCN1C(=O)Cn1ccnc(N2CC[C@@H](CO)C2)c1=O | > 99.5 µM
8 | NCc1cccc(NC(=O)[C@@H](NC(=O)OCc2ccccc2)c2ccc(-c3cncnc3)cc2)c1 | > 99.5 µM
9 | O=C(O)c1cc2cc(-c3cc(Cl)cc4c3CCNC4=O)ccc2[nH]1 | > 99.5 µM
10 | O=C(Nc1ccc2c(c1)CNC2)c1cc(Cl)cc2ccccc12 | 0.113 µM
11 | CS(=O)(=O)c1ccc(N2CCN(C(=O)C3CCN(c4ccc(C=O)cc4)CC3)CC2)c([N+](=O)[O-])c1 | > 0.782 µM
12 | CCn1cc(-c2ccc(CN(C)C)cc2)nc(N2CC[C@@H](CO)C2)c1=O | > 99.5 µM
13 | c1ccc2c(CN3CCC(c4c[nH]c5ncccc45)CC3)c[nH]c2c1 | 33.9 µM
14 | O=C(Nc1cc(Cl)cc(C(=O)Nc2nccn2C2CNC2)c1)OCc1ccccc1 | > 99.5 µM
15 | C[C@@]1(CNC(=O)c2cc(Cl)cc(NC(=O)OCc3ccccc3)c2)CNCCOC1 | > 99.5 µM
16 | NCc1cc(NC(=O)c2cc(Cl)cc(NC(=O)OCc3ccccc3)c2)cc(-c2cccc(CC(=O)O)c2)c1 | 39.6 µM
17 | O=C(Nc1ccc2c(c1)CNC2)c1cc(Br)cc2[nH]c(C3CCOCC3)nc12 | 0.59 µM
18 | Cc1c(C(=O)Nc2cc(C(=O)N(C)C3COC3)ccn2)cc(C2CC2)n1C | > 25 µM
19 | O=C(N[C@H](C(=O)NCc1ccc(F)cc1)c1ccc(OCc2ccccc2)cc1)OCc1ccccc1 | > 99.5 µM
20 | O=c1[nH]c2cccc(N3CCN(Cc4c[nH]c5ccccc45)CC3)c2[nH]1 | > 99.5 µM
21 | NCc1cccc(NC(=O)[C@H](NC(=O)OCc2ccccc2)c2ccc(CO)cc2)c1 | > 99.5 µM
22 | O=C(Nc1ccc2c(c1)CNC2)c1cc(F)cc(-c2ccc3c(=O)[nH]ncc3c2)c1 | 0.456 µM and 0.295 µM
23 | COC(=O)c1cc(NC(=O)OCc2ccccc2)cc(C(=O)Nc2cccc(CN)c2)c1 | 55.7 µM
24 | Cc1c(C(F)(F)F)n[nH]c1CN1CCC(c2cscn2)CC1 | > 99.5 µM
25 | O=C(Nc1cc(Cl)cc(C(=O)N2CCC[C@H]2C(=O)O)c1)OCc1ccccc1 | > 99.5 µM

Row | Compound | IC50
26 | O=Cc1ccc(N2CCC(C(=O)Nc3ccc(Br)cc3O)CC2)cc1 | 67.6 µM
27 | O=C(Nc1ccc2c(c1)CNC2)c1cccc2c1OCCN2 | 8.24 µM
28 | CC(C)(c1nc2c(C(=O)Nc3ccc4c(c3)CNC4)cc(F)cc2[nH]1)S(C)(=O)=O | 0.405 µM and 0.264 µM
29 | CCCN(C)C(=O)Cn1ccnc(N2CC[C@H](CO)C2)c1=O | > 99.5 µM
30 | CO[C@]1(C)C(=O)Nc2cc(F)cc(C(=O)Nc3ccc4c(c3)CNC4)c21 | 1.19 µM
31 | O=C(Nc1cc(Cl)cc([C@H]2C[C@@H]2c2ccc3c(c2)CNC3)c1)OCc1ccccc1 | 22.8 µM
32 | Cn1cc([C@@H]2C[C@H](C(=O)Nc3cccc(CN)c3)CC(=O)N2)cn1 | > 99.5 µM
33 | CCn1ccnc(N2CC[C@H](c3c[nH]c4ccccc34)C2)c1=O | > 99.5 µM
34 | CS(=O)(=O)c1cc2c(cc1NC(=O)c1cc(F)cc3[nH]ncc13)CNC2 | 0.2 µM
35 | NCc1nc(-c2ccc(NC(=O)c3cc(Cl)cc(NC(=O)OCc4ccccc4)c3)cc2)n[nH]1 | > 99.5 µM
36 | Cn1ccc(-c2cc(F)cc(C(=O)Nc3ccc4c(c3)CNC4)c2)cc1=O | 0.104 µM
37 | Cc1cc(C(F)(F)F)nc(C(=O)Nc2cccc(CN)c2)n1 | > 99.5 µM
38 | O=C(Nc1cc(-c2cccnc2)ccn1)c1cc(C2CC2)[nH]c(=O)c1 | > 25 µM
39 | NCc1cccc(CS(=O)(=O)c2cc(Cl)cc(NC(=O)OCc3ccccc3)c2)c1 | > 99.5 µM
40 | N#Cc1ccc(N2CCN(Cc3c[nH]c4ccccc34)CC2)cc1 | 86.2 µM
41 | CNC(=O)[C@H](Nc1cncc(C(=O)O)c1)c1cc(Cl)cc(C2CC2)c1 | > 99.5 µM
42 | O=C(Nc1cc(Cl)cc(C(=O)Nc2cccc3c2OC[C@H](C(=O)O)C3)c1)OCc1ccccc1 | > 99.5 µM
43 | CCOCCNC(=O)c1cc(Cl)ccc1NS(=O)(=O)c1ccc(Oc2ccccc2Cl)cc1 | 90.4 µM and > 99.5 µM
44 | Cn1ccc(Nc2ccc(S(=O)(=O)Nc3ccc(Cl)cc3C(=O)O)cn2)n1 | > 99.5 µM
45 | O=C(Nc1ccc2c(c1)CNC2)c1cc(Cl)cc2c1CCC2 | 0.159 µM
46 | Cc1c(C(=O)Nc2cc(C(=O)N[C@H]3CCOC3)ccn2)cc(C2CC2)n1C | > 25 µM
47 | CS(=O)(=O)NCc1ccc(CNC(=O)[C@@H](NC(=O)OCc2ccccc2)c2ccc(OCc3ccccc3)cc2)cc1 | > 99.5 µM
48 | c1ccc2c(CN3CCC(c4cscn4)CC3)c[nH]c2c1 | 22.1 µM
49 | O=C(Nc1cc(Cl)cc(C(=O)Nc2ccnc([C@H]3CCCN3)n2)c1)OCc1ccccc1 | 82.6 µM
50 | Cn1cc(-c2ccc([C@@H](NC(=O)OCc3ccccc3)C(=O)Nc3cccc(CN)c3)cc2)cn1 | > 99.5 µM
